Test results reported in the RepoRT retention time repository (doi:10.1016/j.chroma.2019.01.023).

Legend:
Settings in all cases: stereoisomer not certain
[1] = HILIC, Merck SeQuant ZIC-pHILIC, 150 × 2.1 mm, 5 µm, 40 °C, 0.3 mL/min, estimated dead time 1.1 min; A: acetonitrile; B: water + 2.8 mM ammonium formate, pH 9; gradient (min/%B) 0/5 1/5 10/51 13/51 13.1/5 20/5
[2] = RP, Phenomenex Kinetex C18, 150 × 2.1 mm, 1.7 µm, 30 °C, 0.3 mL/min, estimated dead time 1.1 min; A: water + 0.1% formic acid, pH 3; B: acetonitrile + 0.1% formic acid, pH 3; gradient (min/%B) 0/2 14/100 17/100 17.1/2 25/2
[3] = as above; remark: listed apart in the source
[4] = HILIC, Waters ACQUITY UPLC BEH Amide, 150 × 2.1 mm, 1.7 µm, 40 °C, 0.5 mL/min, estimated dead time 0.66 min; A: 5% water + 95% acetonitrile; B: 70% water + 30% acetonitrile + 10 mM ammonium formate, pH 6.5; gradient (min/%B) 0/0 2/0 20/70 23/70 24/0 31/0

| Structure (SMILES) | LC retention time [1] | LC retention time [2] | LC retention time [3] | LC retention time [4] |
| --- | --- | --- | --- | --- |
| Cc1cn(C2CC(O)C(CO)O2)c(=O)[nH]c1=O (centres undefined) [THYMIDINE] | 3.56 min | 3.21 min | 3.34 min | 1.97 min |
| Cc1c[nH]c(=O)[nH]c1=O [THYMINE] | 2.68 min | 2.42 min | 2.54 min | 1.6 min |
| NC(Cc1ccc(O)cc1)C(=O)O (centres undefined) [TYROSINE] | 8.2 min | 2 min | 2.11 min | 9 min |
| O=c1ccn(C2OC(CO)C(O)C2O)c(=O)[nH]1 (centres undefined) [URIDINE] | 6.2 min | 1.88 min | 2.06 min | 3.65 min |
| O=c1[nH]c(=O)c2[nH]cnc2[nH]1 [XANTHINE] | 6.53 min | 1.82 min | 2.05 min | 4.97 min |
| O=c1[nH]c(=O)c2ncn(C3OC(CO)C(O)C3O)c2[nH]1 (centres undefined) [XANTHOSINE] | 7.99 min | 3.01 min | 3.11 min | 7.17 min |
